Experiments:
[1] = test system: IL-6, IL-8, TNF-α and MCP-1 in primary human cerebellar astrocytes (HCA); assay: Flow-cytometry assay of intracellular cytokine production in IL1-β-treated astrocytes; type: cell-based
Method: Flow cytometry. For each well of HCA in a 6-well plate, 2 mL of fresh media with GolgiPLUG (BD #555029, 1:1000) and GolgiSTOP (BD #554724, 1:1000) with 20 μM compound or vehicle (DMSO) and IL1-β 10 ng/mL or DPBS was added. The cells were incubated for 5 h at 37° C. Cells were collected with TrypLE and plated into a 96-well V-bottom plate for staining. The plate was centrifuged for 5 min, 1300 rpm, 4° C. to pellet cells, which were subsequently resuspended in 100 μl DPBS with 1 μl Zombie Violet (Biolegend #423113) and 5 μl Human Trustain FC block (Biolegend #422302) per well for 15 min at room temperature in the dark. The plate was centrifuged, supernatant was aspirated, and the cells were washed with 100 μl/well DPBS. Cells were fixed with 100 μl/well of Cytofix/Cytoperm (BD) for 20 min at 4° C. The plate was centrifuged, supernatant was aspirated, and cells were resuspended in 100 μl Permwash (BD) and incubated for 15 min at 4° C. The plate was centrifuged, supernatant was aspirated, and cells were incubated with 100 μl/well of Ab mix or isotype mix in Permwash (see below) for 20 min at 4° C., followed by centrifugation and 2× PermWash washes. The cells were resuspended in 100 ul DPBS and transferred to FACS tubes containing 200 ul of PBS (total volume per tube 300 μl) for analysis on FACS Analyzers (LSRII or Fortessa).
Primary human cerebellar astrocytes (HCA) were co-treated with 20 μM of each compound or vehicle (DMSO), 10 ng/mL IL1-β, and a protein transport inhibitor for 6 hours, and then processed for intracellular staining of pro-inflammatory cytokines IL-6, IL-8, TNF-α, and MCP-1. […]; in vitro IC50 values are for CK2 as reported in the literature).

IL6 expression = IL6 expression in AD patient iPSC-derived astrocytes after IL1-β stimulation (qRT-PCR); type: cell-based, human; details: controls and AD astrocytes
CK2 Y255 = assay: Immunofluorescence of CK2 Y255 phosphorylation in nuclei of primary human astrocytes; type: cell-based; details: 20 μM, 5 h
Method: Immunotluorescence. […] After treatment, cells were fixed with 4% paraformaldehyde solution for 20 min at room temperature and washed 3× with DPBS for 10 min each. The cells were permeabilized using 5% horse serum and 10% Triton X in DPBS for 15 min at room temperature and blocked with 5% horse serum in PBS for 30 min at room temperature. Cells were incubated with primary antibodies in blocking buffer either overnight at 4° C. or for 2 hours at room temperature. After incubation, cells were washed 3× with PBS, blocked using 5% horse serum in PBS for 30 min at room temperature, and incubated with Cy3 red-labeled or AF488 green-labeled secondary antibodies diluted in blocking buffer for 1 hour at room temperature. The cells were washed once with PBS for 10 min, then counter-stained with DAPI. The cells were washed 3× with PBS and mounted with glass coverslips and Immu-Mount solution. Images were obtained with the Zeiss fluorescent microscope. […]

COc1cc(-c2cc(=O)c3c(O)cc(O)cc3o2)ccc1O [CHR, chrysoeriol]
suppression of IL1-β-induced IL-6, IL-8, TNF-α and MCP-1 cytokine upregulation ([1]; 20 μM, human astrocytes): strong suppressive activity
summary of SAR data, activity class ([1]; at 20 μM, FIG. 5A): active
IL6 expression after IL1-β stimulation (IL6 expression): reduced
pCK2/CK2 in nuclei (CK2 Y255): reduced

— US20240197890A1, “FLAVONE DERIVATIVES AND USES IN TARGETING CK2-MEDIATED DISEASES AND CONDITIONS” (Salk Institute for Biological Studies, priority 2020, published 2024)
